In patent US5541208A, “Indole diterpene alkaloid compounds” (priority 1994, dated 1996):
Read-outs that look alike come from different tables or passages of the source.

Experiments:
[1] = molecular target: T1, maxi-K channels from bovine aortic smooth muscle (Bos taurus, UniProt Q28204); experiment: Patch clamp recording of maxi-K channel currents in excised inside-out membrane patches; assay type: biochemical; conditions: for inhibition at 0.01 µM: pH 7.2; for IC50: table of Example 4, read-out: 50% CHANNEL BLOCK; for block of maxi-K channels relative to Compound C: compared with Compound C
T1 construct: membrane patches excised from cultured bovine aortic smooth muscle cells; endogenous in cells; host or cells: cultured bovine aortic smooth muscle cells
T1 sequence (Q28204 whole entry): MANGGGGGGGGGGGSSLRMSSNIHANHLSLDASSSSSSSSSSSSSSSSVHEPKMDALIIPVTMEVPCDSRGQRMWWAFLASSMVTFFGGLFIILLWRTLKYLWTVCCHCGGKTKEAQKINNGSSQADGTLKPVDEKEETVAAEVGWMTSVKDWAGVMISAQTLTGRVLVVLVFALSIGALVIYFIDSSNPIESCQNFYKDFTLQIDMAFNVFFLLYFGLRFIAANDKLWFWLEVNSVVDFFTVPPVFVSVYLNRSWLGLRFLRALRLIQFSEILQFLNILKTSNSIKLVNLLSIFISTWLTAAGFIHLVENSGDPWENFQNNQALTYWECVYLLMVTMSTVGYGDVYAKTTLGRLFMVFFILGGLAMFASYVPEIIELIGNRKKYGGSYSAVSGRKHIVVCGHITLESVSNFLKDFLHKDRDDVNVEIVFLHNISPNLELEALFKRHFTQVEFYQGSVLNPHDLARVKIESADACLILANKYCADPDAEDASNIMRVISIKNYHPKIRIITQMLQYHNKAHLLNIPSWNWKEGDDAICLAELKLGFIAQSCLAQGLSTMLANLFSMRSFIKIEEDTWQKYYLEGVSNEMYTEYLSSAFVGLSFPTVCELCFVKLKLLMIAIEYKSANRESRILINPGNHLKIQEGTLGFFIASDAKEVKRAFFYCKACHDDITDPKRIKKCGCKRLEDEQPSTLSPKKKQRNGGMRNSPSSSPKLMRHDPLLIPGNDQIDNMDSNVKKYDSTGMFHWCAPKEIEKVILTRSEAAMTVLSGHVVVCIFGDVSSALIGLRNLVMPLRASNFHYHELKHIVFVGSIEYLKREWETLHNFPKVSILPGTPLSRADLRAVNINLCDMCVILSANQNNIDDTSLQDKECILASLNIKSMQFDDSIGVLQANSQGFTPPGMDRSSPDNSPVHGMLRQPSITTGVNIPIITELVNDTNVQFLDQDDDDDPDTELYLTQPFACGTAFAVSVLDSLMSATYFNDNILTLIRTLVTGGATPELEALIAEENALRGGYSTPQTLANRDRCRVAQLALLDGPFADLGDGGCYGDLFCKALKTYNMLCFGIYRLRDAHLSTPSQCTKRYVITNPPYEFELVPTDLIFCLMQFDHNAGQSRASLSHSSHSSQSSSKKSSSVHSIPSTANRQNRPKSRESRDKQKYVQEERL
Text: Patch clamp recordings of currents flowing through large-conductance calcium-activated potassium (maxi-K) channels were made from membrane patches excised from cultured bovine aortic smooth muscle cells using conventional techniques (Hamill et al., 1981, Pflugers Archiv. 391, 85-100) at room temperature. Glass capillary tubing (Gamer #7052) was pulled in two stages to yield micropipettes with tip diameters of approximately 1-2 microns. Pipettes were typically filled with solutions containing (mM): 150 KCl, 10 Hepes (4-(2-hydroxyethyl)-1-piperazine ethanesulfonic acid), 1 Mg, 0.01 Ca, and adjusted to pH 7.20 with 3.7 mM KOH. After forming a high resistance (>10^9 ohms) seal between the sarcolemmal membrane and the pipette, the pipette was withdrawn from the cell, forming an excised inside-out membrane patch. The patch was excised into a bath solution containing (mM): 150 KCl, 10 Hepes, 5 EGTA (ethylene glycol bis(13-aminoethyl ether)-N,N,N',N'-tetraacetic acid), sufficient Ca to yield a free Ca concentration of 1-5 μM, and the pH was adjusted to 7.2 with 10.5 KOH. For example, 4.568 mM Ca was added to give a free concentration of 2 μM at 22 ° C. An AXOPATCH 1C amplifier (Axon Instruments, Foster City, Calif.) with a CV-4 headstage was used to control the voltage and to measure the currents flowing across the membrane patch. The input to the headstage was connected to the pipette solution with a Ag/AgCl wire, and the amplifier ground was connected to the bath solution with a Ag/AgCl wire covered with a tube filled with agar dissolved in 0.2M KCl. Maxi-K channels were identified by their large single channel conductance (~250 pS) and sensitivity of channel open probability to membrane potential and intracellular calcium concentration.
Data were stored on a RACAL STORE 4DS FM tape recorder (Racal Recorders, Vienna, Va.) or on digital video tape using a video casette recorder after digitizing the signal with VR-10 (Instrutech Corp., Belmont N.Y.) PCM video encoder. The signal was also recorded on chart paper with a GOULD 2400S chart recorder (Gould Inc., Cleveland Ohio). For quantitative analysis, the data was played into a DEC11-73 (Digital Equipment Corp., Maynard, Mass.) after digitization with a DT2782-8D1A analogue to digital converter (Data Translation Inc., Marlboro, Mass.), or played into a Mac IIx or Quadra 700 computer (Apple Computers) after digitization with an ITC-16 interface (Instrutech Corp., Belmont, N.Y.).

[2] = molecular target: T2, bovine aortic sarcolemma membrane vesicles ([^125 I]ChTX receptor) (Bos taurus, UniProt Q28204); experiment: [^125 I]ChTX binding assay with aortic sarcolemma membrane vesicles; conditions: for effect on [^125 I]ChTX binding: 1 nM to 100 μM
T2 construct: bovine aortic s sarcolemma membrane vesicles; from tissue; host or cells: bovine aorta, sarcolemma membrane vesicles
T2 sequence (Q28204 whole entry): as above
T2 sequence (Q28067 whole entry partner): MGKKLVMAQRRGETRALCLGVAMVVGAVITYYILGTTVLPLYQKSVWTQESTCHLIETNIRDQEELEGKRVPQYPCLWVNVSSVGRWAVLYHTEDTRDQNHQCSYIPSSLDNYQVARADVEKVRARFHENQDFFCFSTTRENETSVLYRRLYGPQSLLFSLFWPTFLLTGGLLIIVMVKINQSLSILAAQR
Method: The interaction of [^125 I]ChTX with bovine aortic s sarcolemma membrane vesicles was determined under conditions as described (Vazquez et al., 1989, J. Biol. Chem. 264, 20902-20909). Briefly, sarcolemma membrane vesicles were incubated in 12×75 polystyrene tubes with ca. 25 pM [^125 I]ChTX (2200 Ci/mmol), in the absence or presence of test compound, in a media consisting of 20 mM NaCl, 20 mM Tris-HCl pH 7.4, 0.1% bovine serum albumin, 0.1% digitonin. Nonspecific binding was determined in the presence of 10 nM ChTX. Incubations were carried out at room temperature until ligand binding equilibrium is achieved at ca. 90 min. At the end of the incubation period, samples were diluted with 4 mL ice-cold 100 mM NaCl, 20 mM Hepes-Tris pH 7.4 and filtered through GF/C glass fiber filters that have been presoaked in 0.5% polyethylenimine. Filters were rinsed twice with 4 mL ice-cold quench solution. Radioactivity associated with filters was determined in a gamma counter. Specific binding data in the presence of each compound (difference between total binding and nonspecific binding) was assessed relative to an untreated control.

CC1(C)ON=C2C=C3C(CCC4(C)C3(O)CCC3Cc5c([nH]c6ccccc56)C34C)OC21 (stereo not shown) [Compound F, Paxizoline]
inhibition at 0.01 µM ([1]; 10 nM, read-out: decrease in channel activity): ~50%
IC50 [1]: ~10 nM
effect on amount of toxin bound to its receptor ([2]; 50 nM to 2 μM): small increase in the amount of toxin bound to its receptor
effect on toxin binding ([2]; concentrations above 5 μM): concentration-dependent inhibition of binding

CC(C)(O)C1CC(O)C2(C(=O)O)C(CCC3(C)C2CCC2Cc4c([nH]c5ccccc45)C23C)O1 (stereo not shown) [Compound D, hydroxypaspalinic acid]
block of channel activity ([1]; 1 μM): complete block was not observed
block of maxi-K channels relative to Compound C [1]: weaker blockers of maxi-K channels than Compound C
inhibition at 0.01 µM ([1]; 10 nM, read-out: reduction in channel open probability): < 50%
IC50 [1]: ~1000 nM
effect on [^125 I]ChTX binding [2]: did not have any effect on binding

COC(=O)C12C(O)CC(C(C)(C)O)OC1CCC1(C)C2CCC2Cc3c([nH]c4ccccc34)C21C (stereo not shown) [Compound E, methyl hydroxypaspalinate]
effect on channel open probability ([1]; 1 μM): no significant effect on channel open probability
block of channel activity ([1]; 10 μM): incomplete block of channel activity
time over which block of channel activity slowly increased ([1]; 10 μM): 5 to 10 min
block of maxi-K channels relative to Compound C [1]: weaker blockers of maxi-K channels than Compound C
IC50 [1]: > 10000 nM
effect on [^125 I]ChTX binding [2]: did not affect [^125 I]ChTX binding

CC(C)=CCc1cccc2[nH]c3c(c12)CC1CCC2(O)C45OC4C4OC(C=C(C)C)OC(C)(C)C4OC5=CCC2(C)C31C (stereo not shown) [Compound C]
block of maxi-K channels / channel activity ([1]; 10 nM): rapid and complete block
reversal of block on washout ([1]; 10 nM, brief (~10 min) washout): not reversed
IC50 [1]: < 10 nM
inhibition at 10 µM ([2]; read-out: inhibition of [^125 I]ChTX binding): 29%
